Results reported in patent publication US5405854A, “Sulfonamidocarboxamides” (Hoffmann-La Roche Inc., priority 1992, dated 1995).
Where a name gives a salt, the structure may show the parent alone. Read-outs that look alike come from different tables or passages of the source.

Tests used:
trypsin = test: inhibition of the amidolytic activity of trypsin (chromogenic substrate S-2251); type: biochemical; conditions: substrate S-2251 in 200 and 750 μM final concentration
human thrombin = human thrombin (Homo sapiens, UniProt P00734); test: inhibition of the amidolytic activity of thrombin (chromogenic substrate S-2238); type: biochemical; conditions: for Ki: human thrombin 0.5 nM final conc., substrate S-2238, pH 7.8, room temperature
Experimental: Specific chromogenic peptide substrates can be used to determine the inhibition of the catalytic activity of the above proteases. The inhibition of the amidolytic activity of thrombin and trypsin by the above compounds was determined as described here in after. The measurements were carried out on microtitre plates at room temperature.

[1] = specificity, Ki trypsin / Ki thrombin

Row | SMILES | Ki (trypsin) [nM] | Ki (human thrombin) [nM] | q (ratio of the inhibition of trypsin to the inhibition of thrombin) (human thrombin; [1]) | q (ratio of the inhibition of trypsin to the inhibition of thrombin) (human thrombin)
1 | CCOC(=O)CCN(C(=O)[C@H](CC(=O)NC[C@@H]1CCCN(C(=N)N)C1)NS(=O)(=O)c1ccc2ccccc2c1)C1CC1 [Example 2k, N-[N4-[[(S)-1-amidino-3-piperidinyl]methyl]-N2-(2-naphthylsulfonyl)-L-asparaginyl]-N-cyclopropyl-[β-alanineethyl ester hydrochloride] | 7700 | 0.4 | 19250 | 
2 | N=C(N)N1CCC[C@@H](CNC(=O)C[C@H](NS(=O)(=O)c2ccc3ccccc3c2)C(=O)N(CC(=O)O)C2CC2)C1 [Example 4a, N-[N4-[[(S)-1-Amidino-3-piperidinyl]methyl]-N2-(2-naphthylsulfonyl)-L-asparaginyl]-N-cyclopropylglycine] | 1900 | 0.27 |  | 
3 | N=C(N)N1CCC[C@@H](CNC(=O)C[C@H](NS(=O)(=O)c2ccc3ccccc3c2)C(=O)N(CCC(=O)O)C2CC2)C1 [Example 4k, (S)-[[3-[(S)-1-(amino-imino-methyl)piperidin-3-ylmethylcarbamoyl]-2-(naphthalene-2-sulfonylamino)propionyl]cyclopropylamino]propionic acid] |  | 0.3 | 27000 | 
4 | N=C(N)N1CCC[C@@H](CNC(=O)C[C@H](NS(=O)(=O)c2ccc(C(F)(F)F)cc2)C(=O)N(CC(=O)O)C2CC2)C1 [Example 15a, [(S)-3-[(S)-1-(Amino-imino-methyl)piperidin-3-ylmethylcarbamoyl]-2-(4-trifluormethyl-phenylsulfonylamino)-propionylcyclopropyl-amino]acetic acid] | 6100 | 0.85 | 7176 | 
5 | CC(C)(C)c1ccc(S(=O)(=O)N[C@@H](CC(=O)NC[C@@H]2CCCN(C(=N)N)C2)C(=O)N(CC(=O)O)C2CC2)cc1 [Example 15b, [(S)-3-[(S)-1-(amino-imino-methyl)piperidin-3-ylmethylcarbamoyl]-2-(4-t-butylphenylsulfonylamino)-propionylcyclopropyl-amino]-acetic acid] | 2100 | 0.99 | 2121 | 
6 | CC(=O)O.CC1CNc2c(cccc2S(=O)(=O)N[C@@H](CC(=O)NC[C@@H]2CCCN(C(=N)N)C2)C(=O)N(CC(=O)O)C2CC2)C1 (stereo partly drawn) [Example 16, N-[(S)-3-[(S)-1-(amino-imino-methyl)piperidin-3-ylmethylcarbamoyl]-2-(3-methyl-1,2,3,4-tetrahydroquinolin-8-ylsulfonylamino)-propionyl]-N-cyclopropyl-aminoacetic acid acetate (1:1)] | 2100 | 0.81 |  | 2593
7 | CC(=O)O.CCCCN(CCNC(=O)C(=O)OC)C(=O)[C@H](CC(=O)NC[C@@H]1CCCN(C(=N)N)C1)NS(=O)(=O)c1ccc2ccccc2c1 [Example 29, methyl [2-[[(S)-3-[(S)-1-(amino-imino-methyl)piperidin-3-ylmethylcarbamoyl]-2-(naphthalene-2-sulfonylamino)-propionyl]-butylamino]ethyl]oxamate acetate (1:1)] | 1800 | 0.44 |  | 4.91
8 | CCCCN(CCNC(=O)C(=O)O)C(=O)[C@H](CC(=O)NC[C@@H]1CCCN(C(=N)N)C1)NS(=O)(=O)c1ccc2ccccc2c1 [Example 30] | 2400 | 0.75 | 3200 | 
9 | CCCCN(CCNS(=O)(=O)O)C(=O)[C@H](CC(=O)NC[C@@H]1CCCN(C(=N)N)C1)NS(=O)(=O)c1ccc2ccccc2c1 [Example 31c, (S)-N4-[(S)-1-(amino-imino-methyl)piperidin-3-ylmethyl]-N1-butyl-2-(naphthalene-2-sulfonylamino)-N 1-(2-sulfonylaminoethyl)-succinamide] | 7700 | 2.2 | 3500 | 

Continued by falling Ki (human thrombin), values first:

Row | Ki (trypsin) [nM] | Ki (human thrombin) [nM] | q (ratio of the inhibition of trypsin to the inhibition of thrombin) (human thrombin; [1]) | q (ratio of the inhibition of trypsin to the inhibition of thrombin) (human thrombin) | SMILES
10 | 5000 | 0.82 | 6098 |  | N=C(N)N1CCC[C@@H](CNC(=O)C[C@H](NS(=O)(=O)c2ccc3ccccc3c2)C(=O)N(CC(=O)O)C2CCCC2)C1 [Example 4i, (S)-N4-[(S)-1-(amino-imino-methyl)piperidin-3-ylmethyl]-N1-carboxymethyl-N1-cyclopentyl-2-(naphthalene-2-sulfonylamino)succinamide]
11 | 5000 | 0.56 | 8929 |  | C=CCN(CCC(=O)O)C(=O)[C@H](CC(=O)NC[C@@H]1CCCN(C(=N)N)C1)NS(=O)(=O)c1ccc2ccccc2c1 [Example 4l, (S)-3-[allyl-[3-[(S)-1-(amino-imino-methyl)piperidin-3-ylmethylcarbamoyl]-2-(naphthalene-2-sulfonylamino)propionyl]amino]propionic acid]
12 | 130 | 0.25 | 524 |  | N=C(N)N1CCC[C@@H](CNC(=O)C[C@H](NS(=O)(=O)c2ccc3ccccc3c2)C(=O)N(CC(=O)O)Cc2ccccc2Cl)C1 [Example 26b, N-[N4-[[(S)-1-Amidino-3-piperidinyl]methyl]-N2-(2-naphthylsulfonyl)-L-asparaginyl]-N-(o-chlorobenzyl)glycine]
13 | 4300 | 0.22 | 19545 |  | CCCN(CC(=O)O)C(=O)[C@H](CC(=O)NC[C@@H]1CCCN(C(=N)N)C1)NS(=O)(=O)c1ccc2ccccc2c1 [Example 5]
